Measurements reported in the supplement of paper PMC10307832.

Assays:
Experiment in all cases: relative viability (nuclei count vs DMSO), 5 days (fraction); higher = more cells survive
[1] = compound: CCc1c2c(nc3ccc(OC(=O)N4CCC(N5CCCCC5)CC4)cc13)-c1cc3c(c(=O)n1C2)COC(=O)[C@]3(O)CC [Irinotecan] + Cc1nc(NC(=O)N2CCC[C@H]2C(N)=O)sc1-c1ccnc(C(C)(C)C(F)(F)F)c1 [Alpelisib] (partner 2 µM)
Outline: (§1)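 One day after seeding in 1536-well plates, lung cancer cell lines were dosed by pin tool. Dosing was either single-drug or a fixed anchor-drug dose plus five library-drug doses (not always all listed) in √10 steps. After 5 days, nuclei were stained in one fix-and-stain step and counted on 4× images, and relative viability is the nuclei count of treated wells over that of vehicle wells, given as the median of duplicate plates.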

[2] = compound: Cn1cc(-c2cnc3ccc4ccc(CS(=O)(=O)NCc5ccccn5)cc4c(=O)c3c2)cn1 [MK-8033] + CS(=O)(=O)CCNCc1ccc(-c2ccc3ncnc(Nc4ccc(OCc5cccc(F)c5)c(Cl)c4)c3c2)o1 [Lapatinib] (partner 2 µM)
Outline: as §1

[3] = compound: CC[C@@H](C)CNCC(=O)N1CCC2=C([C@@H]1COC3=CC=CC(=C3)C)C=CS2 [RU-SKI 43] + N=C(N)NC(=N)NCCc1ccccc1 [Phenformin] (partner 250 µM)
Outline: as §1

[4] = compound: CC[C@@H](C)CNCC(=O)N1CCC2=C([C@@H]1COC3=CC=CC(=C3)C)C=CS2 [RU-SKI 43] + Nc1ncn([C@H]2C[C@H](O)[C@@H](CO)O2)c(=O)n1 [Decitabine] (partner 2 µM)
Outline: as §1

| Cell Line | relative viability ([1]; first compound 2 µM) | relative viability ([1]; first compound 6.325 µM) | relative viability ([1]; first compound 20 µM) | relative viability ([2]; first compound 0.02 µM) | relative viability ([2]; first compound 0.06325 µM) | relative viability ([2]; first compound 0.2 µM) | relative viability ([2]; first compound 0.6325 µM) | relative viability ([2]; first compound 2 µM) | relative viability ([3]; first compound 0.1 µM) | relative viability ([3]; first compound 0.3162 µM) | relative viability ([3]; first compound 1 µM) | relative viability ([3]; first compound 3.162 µM) | relative viability ([3]; first compound 10 µM) | relative viability ([4]; first compound 0.1 µM) | relative viability ([4]; first compound 0.3162 µM) | relative viability ([4]; first compound 1 µM) | relative viability ([4]; first compound 3.162 µM) | relative viability ([4]; first compound 10 µM) | relative viability ([1]; first compound 0.6325 µM) |
| --- | --- | --- | --- | --- | --- | --- | --- | --- | --- | --- | --- | --- | --- | --- | --- | --- | --- | --- | --- |
| NCI-H2405 | 0.678 | 0.291 | 0.0889 | 0.967 | 0.944 | 1.09 | 1.03 | 1.1 | 0.37 | 0.371 | 0.413 | 0.379 | 0.358 | 0.704 | 0.778 | 0.681 | 0.808 | 0.688 |  |
| SK-MES-1 | 0.877 | 0.426 | 0.267 | 0.433 | 0.437 | 0.478 | 0.459 | 0.441 | 0.645 | 0.778 | 0.725 | 0.716 | 0.63 | 0.313 | 0.385 | 0.391 | 0.403 | 0.389 | 0.997 |
| LC-2-ad | 0.283 | 0.155 | 0.17 | 1.09 | 0.915 | 0.877 | 1.11 | 0.806 | 0.578 | 0.628 | 0.637 | 0.527 | 0.558 | 0.866 | 0.766 | 0.81 | 0.849 | 0.728 | 0.634 |
| NCI-H1944 | 0.271 | 0.168 | 0.167 | 0.931 |  | 0.808 | 0.825 | 0.791 | 0.214 | 0.21 | 0.225 | 0.213 | 0.177 | 0.449 | 0.4 | 0.423 | 0.473 | 0.442 | 0.58 |
| NCI-H322M | 0.37 | 0.282 | 0.395 | 0.605 | 0.508 | 0.531 | 0.575 | 0.602 | 0.718 | 0.758 | 0.832 | 0.833 | 0.771 | 0.631 | 0.673 | 0.717 | 0.689 | 0.65 | 0.576 |
| HCC-44 | 0.347 | 0.28 | 0.313 | 1.02 | 1.02 | 0.943 | 0.999 | 1 | 0.247 | 0.261 | 0.409 | 0.18 | 0.277 | 0.98 | 0.911 | 0.922 | 0.977 | 0.953 | 0.669 |
| HCC-827 | 0.252 | 0.203 | 0.233 | 0.195 |  | 0.188 | 0.184 | 0.218 | 0.421 | 0.422 | 0.372 | 0.46 | 0.359 | 0.336 | 0.269 | 0.395 | 0.288 | 0.315 | 0.522 |
| SW 1573 | 0.481 | 0.192 | 0.204 | 1.06 | 1.09 | 0.976 | 1.14 | 0.994 | 0.432 | 0.35 | 0.42 | 0.381 | 0.31 | 0.483 | 0.594 | 0.51 | 0.532 | 0.433 | 0.829 |
| NCI-H23 | 0.421 | 0.246 | 0.243 | 1.27 | 0.818 | 0.919 | 1.35 | 1.09 | 0.772 | 0.849 | 0.836 | 0.857 | 0.698 | 0.309 | 0.319 | 0.326 | 0.291 | 0.335 | 0.519 |
| EMC-BAC-2 | 0.28 | 0.165 | 0.181 | 0.954 | 0.792 | 0.859 | 0.959 | 0.876 | 0.535 | 0.429 | 0.551 | 0.482 | 0.507 | 0.984 | 0.965 | 1.02 | 0.997 | 1.03 | 0.483 |
| EPLC-272H | 0.203 | 0.183 | 0.267 | 0.905 |  | 0.914 | 1.05 | 0.903 | 0.294 | 0.242 | 0.323 | 0.213 | 0.266 | 0.358 | 0.369 | 0.324 | 0.365 | 0.353 | 0.44 |
| EKVX | 0.766 | 0.33 | 0.205 | 0.193 | 0.195 | 0.216 | 0.207 | 0.255 | 0.221 | 0.197 | 0.261 | 0.235 | 0.193 | 0.303 | 0.254 | 0.146 | 0.342 | 0.365 | 1.03 |
| HCC-15 | 0.239 | 0.144 | 0.173 | 0.849 | 0.801 | 0.785 | 0.805 | 0.856 | 0.49 | 0.53 | 0.55 | 0.511 | 0.521 | 0.545 | 0.688 | 0.732 | 0.606 | 0.587 | 0.478 |
| LXF-289 | 0.504 | 0.273 | 0.214 | 0.902 | 0.907 | 0.874 | 0.917 | 0.875 | 0.53 | 0.551 | 0.574 | 0.548 | 0.514 | 0.373 | 0.357 | 0.384 | 0.41 | 0.388 | 0.994 |
| LK-2 | 1.4 | 0.487 | 0.259 | 0.968 | 0.807 | 0.963 | 1.1 | 0.807 | 0.484 | 0.404 | 0.505 | 0.811 | 0.501 | 0.317 | 0.279 | 0.408 | 0.298 | 0.246 | 1.17 |
| NCI-H2126 | 0.384 | 0.289 | 0.312 | 0.743 | 0.653 | 0.744 | 0.779 | 0.803 | 0.593 | 0.517 | 0.59 | 0.589 | 0.546 | 0.591 | 0.574 | 0.523 | 0.615 | 0.554 |  |
| NCI-H596 | 0.548 | 0.483 | 0.557 | 1.12 | 0.977 | 1.05 | 1.02 | 1.17 | 0.776 | 0.808 | 0.725 | 0.921 | 0.77 | 1.08 | 1.04 | 0.91 | 1.16 | 1.07 | 0.639 |
